According to patent US20250215012A1, “IKZF2 DEGRADERS AND USES THEREOF” (REGENTS OF THE UNIVERSITY OF MICHIGAN, priority 2022, published 2025):

Target: IKZF2 (Homo sapiens (Human), UniProt Q96SW2+Q9UKS7)
Test: IKZF2 HiBiT Assay (Jurkat-IKZF2-HiBiT cell line)
Assay type: cell-based
Settings: Jurkat-IKZF2-HiBiT cells, 24 hours; for DC50: read-out: HiBit assay degradation analysis DC50; for Dmax: read-out: HiBit assay degradation analysis Dmax
Summary of the method: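 IKZF2 degradation was assessed as HiBiT luminescence in Jurkat-IKZF2-HiBiT cells, using lytic detection after 24 h of compound treatment at 37 °C, 5% CO2.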

Sequence of IKZF2 (Q9UKS7 whole entry): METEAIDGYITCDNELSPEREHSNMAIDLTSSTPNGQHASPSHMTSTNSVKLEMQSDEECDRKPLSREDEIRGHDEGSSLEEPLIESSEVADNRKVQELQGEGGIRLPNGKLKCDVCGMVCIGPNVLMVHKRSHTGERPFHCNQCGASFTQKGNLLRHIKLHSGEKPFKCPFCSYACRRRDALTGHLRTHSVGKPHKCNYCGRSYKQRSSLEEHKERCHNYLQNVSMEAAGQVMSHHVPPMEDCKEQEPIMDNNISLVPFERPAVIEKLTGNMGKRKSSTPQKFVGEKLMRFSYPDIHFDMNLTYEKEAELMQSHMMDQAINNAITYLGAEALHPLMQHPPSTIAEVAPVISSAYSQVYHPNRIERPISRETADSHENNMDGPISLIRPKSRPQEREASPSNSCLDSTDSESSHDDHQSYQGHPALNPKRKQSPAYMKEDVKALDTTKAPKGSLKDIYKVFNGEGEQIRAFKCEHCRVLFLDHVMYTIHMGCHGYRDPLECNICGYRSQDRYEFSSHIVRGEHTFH
Sequence of IKZF2 (Q96SW2 whole entry): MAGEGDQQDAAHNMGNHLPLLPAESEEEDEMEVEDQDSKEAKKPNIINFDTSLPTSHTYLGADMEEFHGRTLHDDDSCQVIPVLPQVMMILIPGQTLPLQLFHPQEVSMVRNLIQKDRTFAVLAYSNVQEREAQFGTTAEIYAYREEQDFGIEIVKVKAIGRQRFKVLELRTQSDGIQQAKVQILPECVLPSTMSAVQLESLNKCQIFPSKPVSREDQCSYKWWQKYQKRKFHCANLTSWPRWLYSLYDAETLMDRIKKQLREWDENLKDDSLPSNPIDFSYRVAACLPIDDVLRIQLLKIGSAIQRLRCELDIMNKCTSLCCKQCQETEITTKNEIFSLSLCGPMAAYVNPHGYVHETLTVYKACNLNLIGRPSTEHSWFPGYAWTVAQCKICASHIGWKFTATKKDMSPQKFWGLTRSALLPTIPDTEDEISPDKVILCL
Sequence of IKZF2 (Q16531 whole entry partner): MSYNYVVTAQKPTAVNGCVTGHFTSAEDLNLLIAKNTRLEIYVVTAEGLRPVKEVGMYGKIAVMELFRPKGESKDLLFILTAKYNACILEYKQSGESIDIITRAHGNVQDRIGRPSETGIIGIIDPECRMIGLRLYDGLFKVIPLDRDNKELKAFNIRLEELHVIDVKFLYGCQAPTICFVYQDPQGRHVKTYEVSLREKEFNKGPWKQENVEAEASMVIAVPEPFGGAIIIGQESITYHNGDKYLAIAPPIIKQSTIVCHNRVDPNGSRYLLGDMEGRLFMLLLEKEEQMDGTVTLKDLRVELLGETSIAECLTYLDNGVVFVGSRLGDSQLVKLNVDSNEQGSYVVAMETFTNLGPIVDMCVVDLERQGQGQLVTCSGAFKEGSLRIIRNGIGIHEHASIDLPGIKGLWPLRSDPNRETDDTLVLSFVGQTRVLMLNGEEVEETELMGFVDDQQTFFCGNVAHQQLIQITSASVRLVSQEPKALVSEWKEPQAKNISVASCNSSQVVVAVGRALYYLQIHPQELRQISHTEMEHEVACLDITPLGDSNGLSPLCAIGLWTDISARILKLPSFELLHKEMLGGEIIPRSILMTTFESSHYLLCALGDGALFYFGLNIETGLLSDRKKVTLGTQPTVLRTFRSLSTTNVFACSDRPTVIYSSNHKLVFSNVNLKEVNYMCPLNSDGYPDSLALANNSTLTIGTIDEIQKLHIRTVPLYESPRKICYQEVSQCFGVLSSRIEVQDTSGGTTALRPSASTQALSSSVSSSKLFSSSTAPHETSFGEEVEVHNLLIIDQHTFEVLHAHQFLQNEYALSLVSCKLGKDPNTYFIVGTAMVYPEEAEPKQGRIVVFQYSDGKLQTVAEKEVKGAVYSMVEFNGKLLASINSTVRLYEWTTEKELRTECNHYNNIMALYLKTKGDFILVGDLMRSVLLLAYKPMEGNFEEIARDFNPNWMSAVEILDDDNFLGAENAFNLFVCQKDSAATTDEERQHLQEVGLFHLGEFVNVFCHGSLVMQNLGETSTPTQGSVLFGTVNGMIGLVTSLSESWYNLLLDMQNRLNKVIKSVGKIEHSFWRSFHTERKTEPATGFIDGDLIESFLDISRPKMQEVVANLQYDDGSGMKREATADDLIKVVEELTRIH

| Structure (SMILES) | DC50 | Dmax |
| --- | --- | --- |
| CC(C)(O)c1ccc(CN2CCC3(CC2)COc2c3ccc3c2CN(C2CCC(=O)NC2=O)C3=O)cc1 (centres unmarked) [Compound A200, 3-(1′-(4-(2-hydroxypropan-2-yl)benzyl)-6-oxo-6,8-dihydro-2H,7H-spiro[furo[2,3-e]isoindole-3,4′-piperidin]-7-yl)piperidine-2,6-dione] | > 0.5 µM | < 40% |
| O=C1CCC(N2Cc3c(ccc4c3OCC43CCN(Cc4cnn(S(=O)(=O)c5ccccc5F)c4)CC3)C2=O)C(=O)N1 (centres unmarked) [Compound A337, 3-(1′-((1-((2-fluorophenyl)sulfonyl)-1H-pyrazol-4-yl)methyl)-6-oxo-6,8-dihydro-2H,7H-spiro[furo[2,3-e]isoindole-3,4′-piperidin]-7-yl)piperidine-2,6-dione] | 0.05 to 0.2 µM | 60 to 80% |
| O=C1CCC(N2Cc3c(ccc4c3OCC43CCN(Cc4cnn(S(=O)(=O)c5ccc(F)cc5)c4)CC3)C2=O)C(=O)N1 [Compound A354, (S)-3-(1′-((1-((4-fluorophenyl)sulfonyl)-1H-pyrazol-4-yl)methyl)-6-oxo-6,8-dihydro-2H,7H-spiro[furo[2,3-e]isoindole-3,4′-piperidin]-7-yl)piperidine-2,6-dione] | > 0.5 µM |  |
| O=C1CCC(N2Cc3c(ccc4c3OCC43CCN(Cc4cnn(Cc5ccccc5)c4)CC3)C2=O)C(=O)N1 (centres unmarked) [Compound A209, 3-(1′-((1-benzyl-1H-pyrazol-4-yl)methyl)-6-oxo-6,8-dihydro-2H,7H-spiro[furo[2,3-e]isoindole-3,4′-piperidin]-7-yl)piperidine-2,6-dione] | < 0.05 µM | 60 to 80% |
| O=C1CCC(N2Cc3c(ccc4c3OCC43CCN(Cc4ccccc4-n4cccn4)CC3)C2=O)C(=O)N1 (centres unmarked) [Compound A156, 3-(1′-(2-(1H-pyrazol-1-yl)benzyl)-6-oxo-6,8-dihydro-2H,7H-spiro[furo[2,3-e]isoindole-3,4′-piperidin]-7-yl)piperidine-2,6-dione] | > 0.5 µM | < 40% |
| O=C1CC[C@H](N2Cc3c(ccc4c3OCC43CCN(Cc4ccn(-c5ccc(Cl)cc5)n4)CC3)C2=O)C(=O)N1 [Compound A315, (S)-3-(1′-((1-(4-chlorophenyl)-1H-pyrazol-3-yl)methyl)-6-oxo-6,8-dihydro-2H,7H-spiro[furo[2,3-e]isoindole-3,4′-piperidin]-7-yl)piperidine-2,6-dione] | 0.05 to 0.2 µM | 40 to 60% |
| COc1ccccc1CN1CCC2(CC1)COc1c2ccc2c1CN(C1CCC(=O)NC1=O)C2=O (centres unmarked) [Compound A215, 3-(1′-(2-methoxybenzyl)-6-oxo-6,8-dihydro-2H,7H-spiro[furo[2,3-e]isoindole-3,4′-piperidin]-7-yl)piperidine-2,6-dione] | 0.2 to 0.5 µM | 40 to 60% |
| O=C1CC[C@H](N2Cc3c(ccc4c3OCC43CCN(Cc4cccc(-c5cnn(C(F)F)c5)c4)CC3)C2=O)C(=O)N1 [Compound A281, (S)-3-(1′-(3-(1-(difluoromethyl)-1H-pyrazol-4-yl)benzyl)-6-oxo-6,8-dihydro-2H,7H-spiro[furo[2,3-e]isoindole-3,4′-piperidin]-7-yl)piperidine-2,6-dione] | < 0.05 µM | > 80% |
| Cn1cc(CN2CCC3(CC2)COc2c3ccc3c2CN(C2CCC(=O)NC2=O)C3=O)c(-c2ccccc2)n1 (centres unmarked) [Compound A256, 3-(1′-((1-methyl-3-phenyl-1H-pyrazol-4-yl)methyl)-6-oxo-6,8-dihydro-2H,7H-spiro[furo[2,3-e]isoindole-3,4′-piperidin]-7-yl)piperidine-2,6-dione] | > 0.5 µM | < 40% |
| O=C1CCC(N2Cc3c(ccc4c3OCC43CCN(Cc4cc5ccccc5s4)CC3)C2=O)C(=O)N1 (centres unmarked) [Compound A184, 3-(1′-(benzo[b]thiophen-2-ylmethyl)-6-oxo-6,8-dihydro-2H,7H-spiro[furo[2,3-e]isoindole-3,4′-piperidin]-7-yl)piperidine-2,6-dione] | > 0.5 µM | < 40% |
| O=C1CCC(N2Cc3c(ccc4c3OCC43CCN(Cc4cnn(C5CC5)c4)CC3)C2=O)C(=O)N1 (centres unmarked) [Compound A230, 3-(1′-((1-cyclopropyl-1H-pyrazol-4-yl)methyl)-6-oxo-6,8-dihydro-2H,7H-spiro[furo[2,3-e]isoindole-3,4′-piperidin]-7-yl)piperidine-2,6-dione] | > 0.5 µM | 40 to 60% |
| O=C1CCC(N2Cc3c(ccc4c3OCC43CCN(Cc4ccc5scnc5c4)CC3)C2=O)C(=O)N1 (centres unmarked) [Compound A54, 3-(1′-(benzo[d]thiazol-5-ylmethyl)-6-oxo-6,8-dihydro-2H,7H-spiro[furo[2,3-e]isoindole-3,4′-piperidin]-7-yl)piperidine-2,6-dione] | 0.05 to 0.2 µM | 40 to 60% |
| O=C1CCC(N2Cc3c(ccc4c3OCC43CCN(C[C@H]4C[C@@H]4c4ccccc4)CC3)C2=O)C(=O)N1 (stereo partly drawn) [Compound A332, 3-(6-oxo-1′-(((1S,2S)-2-phenylcyclopropyl)methyl)-6,8-dihydro-2H,7H-spiro[furo[2,3-e]isoindole-3,4′-piperidin]-7-yl)piperidine-2,6-dione] | > 0.5 µM |  |
| O=C1CCC(N2Cc3c(ccc4c3OCC43CCN(CC4CCCC4)CC3)C2=O)C(=O)N1 (centres unmarked) [Compound A18, 3-(1′-(cyclopentylmethyl)-6-oxo-6,8-dihydro-2H,7H-spiro[furo[2,3-e]isoindole-3,4′-piperidin]-7-yl)piperidine-2,6-dione] | > 0.5 µM | < 40% |
| CCC(c1ccccc1)N1CCC2(CC1)COc1c2ccc2c1CN(C1CCC(=O)NC1=O)C2=O (centres unmarked) [Compound A330, 3-(6-oxo-1′-(1-phenylpropyl)-6,8-dihydro-2H,7H-spiro[furo[2,3-e]isoindole-3,4′-piperidin]-7-yl)piperidine-2,6-dione] | < 0.05 µM | 60 to 80% |
| CC(=O)Nc1cccc(CN2CCC3(CC2)COc2c3ccc3c2CN(C2CCC(=O)NC2=O)C3=O)c1 (centres unmarked) [Compound A176, N-(3-((7-(2,6-dioxopiperidin-3-yl)-6-oxo-7,8-dihydro-2H,6H-spiro[furo[2,3-e]isoindole-3,4′-piperidin]-1′-yl)methyl)phenyl) acetamide] | > 0.5 µM | 40 to 60% |
| O=C1CCC(N2Cc3c(ccc4c3OCC43CCN(Cc4ccc(Cl)cc4)CC3)C2=O)C(=O)N1 (centres unmarked) [Compound A32] | > 0.5 µM | < 40% |
| O=C1CCC(N2Cc3c(ccc4c3OCC43CCN(Cc4ccc5c(cnn5CCO)c4)CC3)C2=O)C(=O)N1 (centres unmarked) [Compound A344, 3-(1′-((1-(2-hydroxyethyl)-1H-indazol-5-yl)methyl)-6-oxo-6,8-dihydro-2H,7H-spiro[furo[2,3-e]isoindole-3,4′-piperidin]-7-yl)piperidine-2,6-dione] | > 0.5 µM | 40 to 60% |
| [2H]C([2H])([2H])n1cc2ccc(CN3CCC4(CC3)COc3c4ccc4c3CN([C@H]3CCC(=O)NC3=O)C4=O)cc2n1 [Compound A301, (S)-3-(1′-((2-(methyl-d3)-2H-indazol-6-yl)methyl)-6-oxo-6,8-dihydro-2H,7H-spiro[furo[2,3-e]isoindole-3,4′-piperidin]-7-yl)piperidine-2,6-dione] | < 0.05 µM | 60 to 80% |
| CCOc1cccc(CN2CCC3(CC2)COc2c3ccc3c2CN(C2CCC(=O)NC2=O)C3=O)n1 (centres unmarked) [Compound A252, 3-(1′-((6-ethoxypyridin-2-yl)methyl)-6-oxo-6,8-dihydro-2H,7H-spiro[furo[2,3-e]isoindole-3,4′-piperidin]-7-yl)piperidine-2,6-dione] | > 0.5 µM | < 40% |
| O=C1CCC(N2Cc3c(ccc4c3OCC43CCN(Cc4c[nH]c(-c5ccccc5)n4)CC3)C2=O)C(=O)N1 (centres unmarked) [Compound A84, 3-(6-oxo-1′-((2-phenyl-1H-imidazol-4-yl)methyl)-6,8-dihydro-2H,7H-spiro[furo[2,3-e]isoindole-3,4′-piperidin]-7-yl)piperidine-2,6-dione] | > 0.5 µM | 40 to 60% |
| CS(=O)(=O)Nc1cccc(CN2CCC3(CC2)COc2c3ccc3c2CN(C2CCC(=O)NC2=O)C3=O)c1 (centres unmarked) [Compound A159, N-(3-((7-(2,6-dioxopiperidin-3-yl)-6-oxo-7,8-dihydro-2H,6H-spiro[furo[2,3-e]isoindole-3,4′-piperidin]-1′-yl)methyl)phenyl) methanesulfonamide] | > 0.5 µM | 40 to 60% |
| O=C1CCC(N2Cc3c(ccc4c3OCC43CCN(CC4CCC(c5ccccc5)CC4)CC3)C2=O)C(=O)N1 (centres unmarked) [Compound A89, 3-(6-oxo-1′-((4-phenylcyclohexyl)methyl)-6,8-dihydro-2H,7H-spiro[furo[2,3-e]isoindole-3,4′-piperidin]-7-yl)piperidine-2,6-dione] | 0.05 to 0.2 µM | 60 to 80% |
| O=C1CCC(N2Cc3c(ccc4c3OCC43CCN(Cc4ccnc5ccccc45)CC3)C2=O)C(=O)N1 (centres unmarked) [Compound A44, 3-(6-oxo-1′-(quinolin-4-ylmethyl)-6,8-dihydro-2H,7H-spiro[furo[2,3-e]isoindole-3,4′-piperidin]-7-yl)piperidine-2,6-dione] | > 0.5 µM | < 40% |
| O=C1CCC(N2Cc3c(ccc4c3OCC43CCN(Cc4cccs4)CC3)C2=O)C(=O)N1 (centres unmarked) [Compound A182, 3-(6-oxo-1′-(thiophen-2-ylmethyl)-6,8-dihydro-2H,7H-spiro[furo[2,3-e]isoindole-3,4′-piperidin]-7-yl)piperidine-2,6-dione] | > 0.5 µM | 40 to 60% |
| O=C1CCC(N2Cc3c(ccc4c3OCC43CCN(Cc4cccc5ccncc45)CC3)C2=O)C(=O)N1 (centres unmarked) [Compound A40, 3-(1′-(isoquinolin-8-ylmethyl)-6-oxo-6,8-dihydro-2H,7H-spiro[furo[2,3-e]isoindole-3,4′-piperidin]-7-yl)piperidine-2,6-dione] | 0.05 to 0.2 µM | 60 to 80% |
